Calls of active or inactive are those of the source.
Columns and labels:
Large T antigen = Large T antigen (Simian virus 40, UniProt P03070); assay type: functional, Betapolyomavirus macacae;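 also: Confirmatory-stage PubChem screen for compounds that inhibit SV40 T antigen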
[1] = NIH-3T3 fibroblast cytotoxicity, dose response, cytotoxicity control, cell-based, fluorescence, Alamar Blue, secondary assay (AID 2327); assay type: functional;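 also: NIH-3T3 mouse fibroblasts cultured with fluconazole at 8 µg/mL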
[2] = C. albicans growth with fluconazole, confirmation, fluorescence, retest (AID 2467); assay type: functional, cell-based
[3] = microbe, parasite or virus in culture; assay type: functional; conditions: Mycobacterium tuberculosis
[4] = inhibitors of intracellular T. cruzi replication, confirmation, NIH3T3 host cells, beta-gal luminescence (AID 2044); assay type: functional, cell-based;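 also: intracellular parasites grown in NIH/3T3 mouse fibroblasts as host cells; luminescent beta-galactosidase reporter signal from transgenic T. cruzi replicating inside host cells; inhibitors lower the luminescence signal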
[5] = cytotoxicity toward NIH3T3 fibroblasts, dose response, counter-screen, cell-based, ATP luminescence, mouse fibroblasts (AID 2010); assay type: functional;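 also: cells exposed to compound for about 90 hours before reading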
cells [6] = assay: cells
cells [7] = assay type: functional, cell-based
cells [8] = assay type: functional, cell-based; remark: listed apart in the source
[9] = Luminescence Cell-Based Dose Retest to Confirm Inhibitors of Cancer Stem Cells. [Related pubchem assays (depositor defined):AID2717, AID2721]; assay type: functional; conditions: Homo sapiens
[10] = molecular target: T1, Corticotropin-releasing factor receptor 2/Corticotropin-releasing factor-binding protein (Homo sapiens, UniProt P24387+Q13324); assay: Dose Response confirmation of uHTS hits for small molecule antagonists of the CRF-binding protein and CRF-R2 receptor complex.; assay type: functional; conditions: read-out: IC50_Mean
T1 sequence (Q13324 whole entry): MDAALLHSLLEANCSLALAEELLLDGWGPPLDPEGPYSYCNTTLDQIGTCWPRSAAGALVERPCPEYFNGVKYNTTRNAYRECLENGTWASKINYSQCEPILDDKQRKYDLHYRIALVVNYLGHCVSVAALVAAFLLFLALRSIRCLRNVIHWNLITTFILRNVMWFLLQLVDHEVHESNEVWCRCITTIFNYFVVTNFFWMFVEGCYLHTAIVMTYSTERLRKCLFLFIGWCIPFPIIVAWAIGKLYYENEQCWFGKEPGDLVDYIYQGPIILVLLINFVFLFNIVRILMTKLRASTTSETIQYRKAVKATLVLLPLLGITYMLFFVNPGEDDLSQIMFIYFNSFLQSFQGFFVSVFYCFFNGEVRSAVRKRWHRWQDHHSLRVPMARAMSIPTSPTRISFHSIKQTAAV
T1 sequence (P24387 whole entry): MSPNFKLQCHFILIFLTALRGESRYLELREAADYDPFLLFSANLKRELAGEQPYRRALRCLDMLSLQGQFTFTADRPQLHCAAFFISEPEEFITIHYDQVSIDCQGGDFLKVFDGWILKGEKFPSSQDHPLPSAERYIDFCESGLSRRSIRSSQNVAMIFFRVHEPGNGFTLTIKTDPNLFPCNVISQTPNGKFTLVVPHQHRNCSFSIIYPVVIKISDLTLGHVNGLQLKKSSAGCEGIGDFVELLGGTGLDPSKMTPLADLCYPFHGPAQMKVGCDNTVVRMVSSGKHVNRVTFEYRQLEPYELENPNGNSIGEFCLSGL

[11] = molecular target: T1, Corticotropin-releasing factor receptor 2/Corticotropin-releasing factor-binding protein; assay: activators of CRF receptor 2 with binding protein – uHTS hits, confirmation (AID 602473); assay type: functional; conditions: read-out: EC50_Mean
[12] = Shn3 3'UTR reporter inhibitors, dose response, cell-based, Clone20 osteoblasts, firefly luciferase, cherry-picked (AID 624132); assay type: functional;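 also: firefly luciferase luminescence from reporter carrying the Shn3 3'UTR in osteoblasts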
[13] = HepG2 cell cytotoxicity, dose response, cytotoxicity control for Shn3 inhibitor project, CellTiter-Glo, cherry-picked (AID 624134); assay type: functional, cell-based
[14] = control 3'UTR Renilla luciferase suppression, dose response, counter-screen for Shn3 inhibitor project, cell-based, Clone20-Shn3RL, cherry-picked (AID 624133); assay type: functional
cells [15] = assay type: functional
[16] = molecular target: T2, Calpain-2 catalytic subunit (Sus scrofa, UniProt P43367); assay: pig calpain II inhibitor potency, dose response, biochemical, fluorogenic peptide substrate (AID 1420); assay type: functional
T2 sequence (P43367 whole entry): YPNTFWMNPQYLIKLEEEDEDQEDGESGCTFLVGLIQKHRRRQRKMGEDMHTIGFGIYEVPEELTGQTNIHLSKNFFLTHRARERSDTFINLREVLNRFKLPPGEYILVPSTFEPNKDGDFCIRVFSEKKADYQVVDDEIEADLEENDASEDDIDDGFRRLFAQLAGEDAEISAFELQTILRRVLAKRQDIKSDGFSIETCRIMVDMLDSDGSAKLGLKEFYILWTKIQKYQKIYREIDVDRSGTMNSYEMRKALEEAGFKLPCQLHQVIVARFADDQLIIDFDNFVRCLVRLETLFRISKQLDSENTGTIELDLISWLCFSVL

[17] = THP-1 cell cytotoxicity, dose response, cytotoxicity control for non-replicating M. tuberculosis project (AID 489025); assay type: functional
[18] = Luminescence Cell-Based Dose Response HTS to Identify Activators of Luciferase Translation or Activity in H4 […] Cells. [Related pubchem assays: 1829 (Project Summary), 1814 (Primary HTS)]; assay type: functional
H4 = assay: Luminescence Cell-Based Dose Response HTS to Identify Activators of 5'UTR Stem-Loop Driven Prion Protein mRNA Translation in H4 Neuroglioblastoma Cells. [Related pubchem assays: 1829 (Project Summary), 1814 (Primary HTS)]; assay type: functional; conditions: Homo sapiens
[19] = molecular target: T3, Heat shock factor protein 1 (Mus musculus, UniProt P38532); assay: inhibition of MG132-induced HSE-luciferase signal, confirmation, cell-based, NIH3T3, luminescence, dose retest (AID 2382); assay type: functional;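 also: NIH3T3 fibroblasts with HSF1-driven luciferase reporter stressed by proteasome inhibitor MG132; luminescence from HSF1-driven luciferase expression after 8 hours of MG132 stress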
T3 sequence (P38532 whole entry): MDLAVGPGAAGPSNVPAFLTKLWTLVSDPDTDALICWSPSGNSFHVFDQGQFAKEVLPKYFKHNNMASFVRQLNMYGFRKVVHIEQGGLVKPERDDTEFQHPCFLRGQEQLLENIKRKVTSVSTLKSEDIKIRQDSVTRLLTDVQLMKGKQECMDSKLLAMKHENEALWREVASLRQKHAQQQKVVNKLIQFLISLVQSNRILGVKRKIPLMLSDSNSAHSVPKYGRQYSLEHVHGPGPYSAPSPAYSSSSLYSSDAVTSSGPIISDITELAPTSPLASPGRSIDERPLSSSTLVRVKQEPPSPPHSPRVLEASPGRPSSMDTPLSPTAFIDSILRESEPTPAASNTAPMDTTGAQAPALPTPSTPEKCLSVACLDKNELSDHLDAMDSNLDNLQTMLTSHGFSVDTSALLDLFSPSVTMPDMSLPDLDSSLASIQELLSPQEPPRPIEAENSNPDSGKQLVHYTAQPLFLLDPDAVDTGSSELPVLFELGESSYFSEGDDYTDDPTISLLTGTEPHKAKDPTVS

Large T antigen, sequence (P03070 whole entry): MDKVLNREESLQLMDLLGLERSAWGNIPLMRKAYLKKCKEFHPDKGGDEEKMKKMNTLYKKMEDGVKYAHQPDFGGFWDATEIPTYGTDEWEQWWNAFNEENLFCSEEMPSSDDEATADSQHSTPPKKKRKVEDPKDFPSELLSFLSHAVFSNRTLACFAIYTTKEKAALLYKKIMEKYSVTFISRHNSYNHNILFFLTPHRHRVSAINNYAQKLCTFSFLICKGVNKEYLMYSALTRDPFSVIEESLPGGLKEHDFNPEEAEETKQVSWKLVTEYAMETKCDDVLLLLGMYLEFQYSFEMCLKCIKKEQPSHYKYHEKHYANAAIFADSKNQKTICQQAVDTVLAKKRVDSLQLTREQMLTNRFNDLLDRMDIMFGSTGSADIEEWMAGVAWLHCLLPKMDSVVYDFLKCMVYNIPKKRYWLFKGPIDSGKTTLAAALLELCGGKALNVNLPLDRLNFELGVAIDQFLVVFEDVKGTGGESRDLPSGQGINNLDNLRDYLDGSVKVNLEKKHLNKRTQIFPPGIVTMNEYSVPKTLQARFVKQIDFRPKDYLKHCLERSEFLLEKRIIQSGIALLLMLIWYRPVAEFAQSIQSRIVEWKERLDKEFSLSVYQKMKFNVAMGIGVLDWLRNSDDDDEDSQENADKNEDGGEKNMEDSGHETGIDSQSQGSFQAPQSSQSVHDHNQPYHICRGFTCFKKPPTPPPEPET

## CCn1cnc2cc(NCc3cccc(OC)c3O)ccc21
Large T antigen
  IC50: 13.3 µM (active)

## O=C(Nc1cccc(-c2nc3ccccc3s2)c1)c1cc(-n2cnnc2)ccc1Cl
[1]
  EC50: 20.3 µM (inconclusive)
[2]
  EC50: 2.98 µM (active)
[3]
  CC50: > 40 µM (active)

## CCOc1ccc(CN2CCCC(N3CCN(c4ccc(OC)cc4)CC3)C2)cc1 (centres undefined)
[4]
  EC50: < 0.1 µM (active)
[5]
  EC50: > 60 µM (not active)
Cells [6]
  EC50: 0.042 µM (active)

## O=C(NCCc1ccccc1)c1cc2sccc2n1Cc1ccccc1
Cells [7]
  EC50: > 350 µM (not active)
Cells [8]
  EC50: > 350 µM (not active)

## COc1ccccc1CN=C(S)Nc1ccc2nc(N3CCN(C)CC3)cc(C)c2c1
[4]
  EC50: < 0.1 µM (active)
[5]
  EC50: > 60 µM (not active)
[9]
  AC50: 0.168 µM (active)
Cells [6]
  EC50: 0.129 µM (active)

## O=C(CC(Sc1ccc(Br)cc1)C(=O)O)c1ccc(Br)cc1 (centres undefined)
Large T antigen
  IC50: 49.4 µM (active)

## COc1ccc(NC(=S)NCc2cccnc2)cc1
[10]
  IC50: 9.74 µM (active)
[11]
  EC50: > 53 µM (inactive)

## Cc1c(C(=O)NCc2cccnc2)oc2ccccc12
[10]
  IC50: > 47.1 µM (inactive)
[11]
  EC50: > 53 µM (inactive)

## Cc1cccc(COc2ccccc2/C=N/Nc2ccc([N+](=O)[O-])cc2)c1
[1]
  EC50: > 150 µM (inactive)
[2]
  EC50: > 38 µM (not active)
[3]
  CC50: > 40 µM (active)

## COc1ccc(/C=C2/CCc3ccccc3C2=O)cc1CN1CCOCC1
[4]
  EC50: < 0.1 µM (active)
[5]
  EC50: > 60 µM (not active)
Cells [6]
  EC50: 0.245 µM (active)

## CCCCNS(=O)(=O)c1ccc(S(=O)(=O)NCc2ccncc2)cc1
[12]
  AC50: 2.4 µM (active)
[13]
  AC50: 6.47 µM (active)
[14]
  AC50: 23 µM (active)

## CN(c1ccccc1)S(=O)(=O)c1cc(C(=O)OCC(=O)N2CCN(C(=O)c3ccco3)CC2)ccc1Cl
[12]
  AC50: 62.9 µM (active)
[13]
  AC50: > 70 µM (inactive)
[14]
  AC50: 30.6 µM (active)

## C=CC(=O)Oc1ccc(N2Cc3ccccc3C2=O)cc1
Large T antigen
  IC50: 4.45 µM (active)

## Cc1ccc2[nH]c(C)c(CCNC(=O)c3cc4cc([N+](=O)[O-])ccc4oc3=O)c2c1
[3]
  CC50: > 40 µM (active)
Cells [15]
  IC50: 4.92 µM (active)

## CCOC(=O)c1cc(S(=O)(=O)Nc2ccc(F)cc2F)cn1C
[10]
  IC50: > 47.1 µM (inactive)
[11]
  EC50: > 53 µM (inactive)

## Cn1c(=O)c2c3c(sc2n2c(SCC(N)=O)nnc12)CC(C(C)(C)C)CC3 (centres undefined)
[3]
  CC50: > 40 µM (active)
[16]
  IC50: 42.9 µM (not active)

## N#CSCC(=O)N1c2ccccc2CCc2ccccc21
Large T antigen
  IC50: 22 µM (active)

## Cc1cc(NC(=O)C23CC4CC(C2)CC(n2cnc([N+](=O)[O-])n2)(C4)C3)no1
[4]
  EC50: < 0.1 µM (active)
[5]
  EC50: > 30 µM (not active)
Cells [6]
  EC50: 0.089 µM (active)

## Cc1ccc(C(=O)C=CNNC(=O)c2ccccc2)cc1
[17]
  CC50: > 40 µM (active)

## O=C(CC12CC3CC(CC(C3)C1)C2)N/N=C/c1ccc([N+](=O)[O-])o1
[4]
  EC50: < 0.1 µM (active)
[5]
  EC50: > 60 µM (not active)
Cells [6]
  EC50: 0.019 µM (active)

## CC(C)c1ccc(NC(=O)NC2CCCCC2)cc1
[18]
  EC50: 0.114 µM (active)

## O=C(CN1CCN(c2ccccc2O)CC1)Nc1ccccc1C(=O)NCCc1ccccc1
[3]
  CC50: > 40 µM (active)

## Cc1nn(-c2ccccc2)c(/N=C/c2ccccc2O)c1-c1ccccc1
[18]
  EC50: 45.7 µM (active)
H4
  EC50: 48.4 µM (active)

## CC(C)(C)NC(=O)C(c1c[nH]c2ccccc12)N(C(=O)Cn1nnc(-c2ccc(F)cc2)n1)c1cccc(O)c1 (centres undefined)
[3]
  CC50: > 40 µM (active)

## COc1ccc(-c2nnn(CC(=O)OC3CCCCC3)n2)cc1OC
[17]
  CC50: > 40 µM (active)
Cells [15]
  IC50: 11.6 µM (active)

## COCc1nnc(NC(=O)c2cc(Cl)ccc2OC)s1
Cells [7]
  EC50: > 350 µM (not active)
Cells [8]
  EC50: > 350 µM (not active)

## O=C(N/N=C/c1ccc(O)c(O)c1)c1cc(-c2ccccc2)nc2ccccc12
Large T antigen
  IC50: 54.1 µM (active)

## Cc1ccc2sc(N(CCCN(C)C)C(=O)c3ccc(S(=O)(=O)N4CCOCC4)cc3)nc2c1C
[4]
  EC50: < 0.1 µM (active)
[5]
  EC50: > 60 µM (not active)
Cells [6]
  EC50: 0.408 µM (active)

## COc1ccc(CN2CCNC(=O)C2CC(=O)N(C)CC2CCOCC2)cc1OC (centres undefined)
Cells [7]
  EC50: > 350 µM (not active)
Cells [8]
  EC50: > 350 µM (not active)

## Cc1ccc(S(=O)(=O)N2CCc3ccccc3CC2)cc1
[12]
  AC50: 3.29 µM (active)
[13]
  AC50: 44.8 µM (active)
[14]
  AC50: 3.03 µM (active)

## CN(C)CCCNC(=O)c1ccccc1Oc1ccccc1
[10]
  IC50: > 47.1 µM (inactive)
[11]
  EC50: > 53 µM (inactive)

## Cc1ccc(NC(=O)c2ccc(Nc3c([N+](=O)[O-])cc([N+](=O)[O-])cc3[N+](=O)[O-])cc2)cc1
[19]
  EC50: 8.29 µM (active)
[4]
  EC50: < 0.1 µM (active)
[5]
  EC50: 15.8 µM (active)
Cells [6]
  EC50: 0.071 µM (active)

## Cn1c(C(=O)NCC2CCCO2)cc2oc3ccccc3c21 (centres undefined)
[18]
  EC50: 0.289 µM (active)
H4
  EC50: 47 µM (active)

## CCc1ccc2nc(N(CCN(C)C)C(=O)c3ccc4ncsc4c3)sc2c1
[4]
  EC50: < 0.1 µM (active)
[5]
  EC50: > 60 µM (not active)
Cells [6]
  EC50: 0.088 µM (active)

Reference: ChEMBL document CHEMBL1201862, “PubChem BioAssay data set” (2004)
